Results published in PubChem BioAssay AID248 (DTP/NCI, 2004).
Where “and” joins values, the source holds several entries; their conditions need not be identical. Equal values may be shown once. Inconclusive results and toxic doses are left out. Square brackets hold non-standard residues; d marks the D form. Peptide text beside a SMILES is read from it. * marks the point of attachment. ξ: configuration not given here. ξE = NC(CCC(=O)O)C(=O)O; Cbz = O=C(OCc1ccccc1)*

Test system: L1210 leukemia ip in BDF1 mice, survival T/C
Test: NCI In Vivo Anticancer Drug Screen. Data for tumor model L1210 Leukemia (intraperitoneal) in B6D2F1 (BDF1) mice
Details: endpoint: mean survival time, higher = longer survival
Outline: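 Ratio derived from survival: compound-dosed mice over vehicle-dosed mice, all bearing a transplantable tumor.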

[1] = dose: 100.0 mg/kg/injection, schedule: Q04DX003 (ip), vehicle: saline
[2] = dose: 200.0 mg/kg/injection, schedule: Q04DX003 (ip), vehicle: saline
[3] = dose: 400.0 mg/kg/injection, schedule: Q04DX003 (ip), vehicle: saline
[4] = dose: 100.0 mg/kg/injection, schedule: Q04DX003 (ip), vehicle: Klucel (hydroxypropylcellulose) (HPC)
[5] = dose: 200.0 mg/kg/injection, schedule: Q04DX003 (ip), vehicle: Klucel (hydroxypropylcellulose) (HPC)
[6] = dose: 400.0 mg/kg/injection, schedule: Q04DX003 (ip), vehicle: Klucel (hydroxypropylcellulose) (HPC)
[7] = dose: 25.0 mg/kg/injection, schedule: Q01DX009 (ip), vehicle: Klucel (hydroxypropylcellulose) (HPC)
[8] = dose: 50.0 mg/kg/injection, schedule: Q01DX009 (ip), vehicle: Klucel (hydroxypropylcellulose) (HPC)
[9] = dose: 100.0 mg/kg/injection, schedule: Q01DX009 (ip), vehicle: Klucel (hydroxypropylcellulose) (HPC)
[10] = dose: 100.0 mg/kg/injection, schedule: Q01DX009 (ip), vehicle: saline
[11] = dose: 50.0 mg/kg/injection, schedule: Q01DX001 (ip), vehicle: saline
[12] = dose: 100.0 mg/kg/injection, schedule: Q01DX001 (ip), vehicle: saline
[13] = dose: 200.0 mg/kg/injection, schedule: Q01DX001 (ip), vehicle: saline
[14] = dose: 400.0 mg/kg/injection, schedule: Q01DX001 (ip), vehicle: saline
[15] = dose: 200.0 mg/kg/injection, schedule: Q01DX009 (ip), vehicle: Klucel (hydroxypropylcellulose) (HPC)
[16] = dose: 100.0 mg/kg/injection, schedule: Q04DX003 (ip), vehicle: saline with Tween-80
[17] = dose: 200.0 mg/kg/injection, schedule: Q04DX003 (ip), vehicle: saline with Tween-80
[18] = dose: 400.0 mg/kg/injection, schedule: Q04DX003 (ip), vehicle: saline with Tween-80

O=C(OCCBr)c1ccccc1[N+](=O)[O-]
T/C [1]: 105 % of control | T/C [2]: 97 % of control | T/C [3]: 100 % of control

O=C(Nc1ccc(Nc2ccccc2)cc1)Nc1ccc(F)c(Cl)c1
T/C [4]: 92 % of control | T/C [5]: 94 % of control | T/C [6]: 94 % of control

CCC1CCC(NC(=O)NCCF)CC1 (centres undefined)
T/C (dose: 75.0 mg/kg/injection, schedule: Q01DX001 (ip), vehicle: other): 98 % of control

CCS/C(Cl)=C(\Cl)SCC
T/C [7]: 101 % of control | T/C [8]: 106 % of control | T/C [9]: 102 % of control and 109 % of control

Nc1cccs1
T/C (dose: 8.12 mg/kg/injection, schedule: Q01DX009 (ip), vehicle: saline): 100 % of control | T/C (dose: 9.37 mg/kg/injection, schedule: Q01DX009 (ip), vehicle: other): 94 % of control | T/C (dose: 16.25 mg/kg/injection, schedule: Q01DX009 (ip), vehicle: saline): 100 % of control | T/C (dose: 18.75 mg/kg/injection, schedule: Q01DX009 (ip), vehicle: other): 107 % of control | T/C (dose: 37.5 mg/kg/injection, schedule: Q01DX009 (ip), vehicle: other): 107 % of control | T/C (dose: 75.0 mg/kg/injection, schedule: Q01DX009 (ip), vehicle: other): 96 % of control | T/C [10]: 153 % of control | T/C (dose: 150.0 mg/kg/injection, schedule: Q01DX009 (ip), vehicle: other): 96 % of control | T/C (dose: 300.0 mg/kg/injection, schedule: Q01DX009 (ip), vehicle: other): 102 % of control

CC(NS(=O)(=O)Cc1ccccc1)C(=O)O (centres undefined)
T/C (dose: 100.0 mg/kg/injection, schedule: Q01DX001 (ip), vehicle: other): 96 % of control | T/C (dose: 100.0 mg/kg/injection, schedule: Q04DX003 (ip), vehicle: other): 107 % of control | T/C (dose: 200.0 mg/kg/injection, schedule: Q01DX001 (ip), vehicle: other): 95 % of control | T/C (dose: 200.0 mg/kg/injection, schedule: Q04DX003 (ip), vehicle: other): 96 % of control | T/C (dose: 400.0 mg/kg/injection, schedule: Q01DX001 (ip), vehicle: other): 104 % of control | T/C (dose: 400.0 mg/kg/injection, schedule: Q04DX003 (ip), vehicle: other): 106 % of control

CC(=O)C(C)CCOC1(C)OCCC1C (centres undefined)
T/C [11]: 103 % of control | T/C [12]: 116 % of control | T/C [13]: 100 % of control | T/C [14]: 103 % of control

Cc1ccc(S(=O)(=O)N/N=C/C=C/c2ccccc2)cc1
T/C (dose: 100.0 mg/kg/injection, schedule: Q04DX002 (ip), vehicle: saline with Tween-80): 103 % of control | T/C (dose: 200.0 mg/kg/injection, schedule: Q04DX002 (ip), vehicle: saline with Tween-80): 93 % of control | T/C (dose: 400.0 mg/kg/injection, schedule: Q04DX002 (ip), vehicle: saline with Tween-80): 93 % of control

CC12CCC3c4ccc(OC(=O)Cc5ccc(N(CCCl)CCCl)cc5)cc4CCC3C1CCC2=O (centres undefined)
T/C (dose: 100.0 mg/kg/injection, schedule: Q01DX001 (sc), vehicle: steriod suspending solution): 97 % of control | T/C (dose: 200.0 mg/kg/injection, schedule: Q01DX001 (sc), vehicle: steriod suspending solution): 103 % of control | T/C (dose: 400.0 mg/kg/injection, schedule: Q01DX001 (sc), vehicle: steriod suspending solution): 103 % of control

C/C(CCCCCCCCC#N)=N/Nc1ccc([N+](=O)[O-])cc1[N+](=O)[O-]
T/C [4]: 93 % of control | T/C [5]: 93 % of control | T/C [6]: 98 % of control

O=C(O)CCC(NC(=O)OCc1ccccc1)C(=O)NCC(=O)O (centres undefined) (Cbz-[ξE]-Gly-OH)
T/C (dose: 12.5 mg/kg/injection, schedule: Q04DX002 (ip), vehicle: saline): 95 % of control | T/C (dose: 25.0 mg/kg/injection, schedule: Q04DX002 (ip), vehicle: saline): 92 % of control | T/C (dose: 50.0 mg/kg/injection, schedule: Q04DX002 (ip), vehicle: saline): 100 % of control

CC[N+](C)(CC)c1ccc(/C=N\N(C)C)cc1
T/C (dose: 6.25 mg/kg/injection, schedule: Q01DX009 (ip), vehicle: Klucel (hydroxypropylcellulose) (HPC)): 96 % of control | T/C (dose: 12.5 mg/kg/injection, schedule: Q01DX009 (ip), vehicle: Klucel (hydroxypropylcellulose) (HPC)): 108 % of control | T/C [7]: 86 % of control

CSc1ccccc1C(=O)NNS(=O)(=O)c1ccc(C)cc1
T/C [9]: 101 % of control | T/C [4]: 95 % of control | T/C [15]: 103 % of control | T/C [5]: 97 % of control | T/C (dose: 400.0 mg/kg/injection, schedule: Q01DX009 (ip), vehicle: Klucel (hydroxypropylcellulose) (HPC)): 95 % of control | T/C [6]: 97 % of control

COP(=O)(CCBr)OC
T/C [12]: 103 % of control | T/C [10]: 101 % of control | T/C [1]: 104 % of control | T/C [13]: 102 % of control | T/C (dose: 200.0 mg/kg/injection, schedule: Q01DX009 (ip), vehicle: saline): 103 % of control | T/C [2]: 104 % of control | T/C [14]: 108 % of control | T/C (dose: 400.0 mg/kg/injection, schedule: Q01DX009 (ip), vehicle: saline): 98 % of control | T/C [3]: 106 % of control

Cn1cnc(N)c1/C(N)=N/O
T/C (dose: 6.25 mg/kg/injection, schedule: Q01DX005 (ip), vehicle: saline): 100 % of control | T/C (dose: 12.5 mg/kg/injection, schedule: Q01DX005 (ip), vehicle: saline): 98 % of control | T/C (dose: 25.0 mg/kg/injection, schedule: Q01DX005 (ip), vehicle: saline): 107 % of control | T/C (dose: 50.0 mg/kg/injection, schedule: Q01DX005 (ip), vehicle: saline): 91 % of control

O=C(Cc1ccccc1)NCc1ccco1
T/C [7]: 100 % of control | T/C [8]: 94 % of control | T/C (dose: 100.0 mg/kg/injection, schedule: Q04DX002 (ip), vehicle: Klucel (hydroxypropylcellulose) (HPC)): 90 % of control

CCOC(=O)/C=C(\CC(=O)OCC)Nc1ccc(C(=O)c2ccccc2)cc1
T/C [13]: 89 % of control

CCN(C(=O)Nc1ccc(Cl)cc1)c1ccccc1
T/C [16]: 96 % of control | T/C [17]: 95 % of control | T/C [18]: 86 % of control

CCc1cnccc1C
T/C (dose: 20.0 mg/kg/injection, schedule: Q04DX003 (ip), vehicle: Klucel (hydroxypropylcellulose) (HPC)): 108 % of control | T/C [7]: 102 % of control | T/C (dose: 40.0 mg/kg/injection, schedule: Q04DX003 (ip), vehicle: Klucel (hydroxypropylcellulose) (HPC)): 102 % of control | T/C [8]: 107 % of control | T/C (dose: 80.0 mg/kg/injection, schedule: Q04DX003 (ip), vehicle: Klucel (hydroxypropylcellulose) (HPC)): 108 % of control | T/C [9]: 111 % of control | T/C [4]: 104 % of control

O=S1(=O)CCCC1C(Cl)c1ccccc1 (centres undefined)
T/C (dose: 50.0 mg/kg/injection, schedule: Q01DX001 (ip), vehicle: Klucel (hydroxypropylcellulose) (HPC)): 92 % of control | T/C (dose: 100.0 mg/kg/injection, schedule: Q01DX001 (ip), vehicle: Klucel (hydroxypropylcellulose) (HPC)): 97 % of control

O=c1cc(CO)[nH]c(=O)[nH]1
T/C [11]: 104 % of control | T/C [8]: 94 % of control | T/C [12]: 102 % of control | T/C [9]: 90 % of control | T/C [13]: 98 % of control | T/C [15]: 97 % of control | T/C [14]: 98 % of control

COC1=NS(=O)(=O)CC(c2ccccc2)O1 (centres undefined)
T/C (dose: 75.0 mg/kg/injection, schedule: Q04DX003 (ip), vehicle: other): 102 % of control | T/C (dose: 150.0 mg/kg/injection, schedule: Q04DX003 (ip), vehicle: other): 86 % of control | T/C (dose: 300.0 mg/kg/injection, schedule: Q04DX003 (ip), vehicle: other): 94 % of control

CC12CC(C(=O)c3ccccc3)C(C)(C1=O)C(c1ccccc1)=C2c1ccccc1 (centres undefined)
T/C [16]: 96 % of control | T/C [17]: 89 % of control | T/C [18]: 89 % of control

CC1OC(=O)C(C)(Br)OC1=O (centres undefined)
T/C (dose: 100.0 mg/kg/injection, schedule: Q01DX001 (ip), vehicle: acetone): 93 % of control | T/C (dose: 200.0 mg/kg/injection, schedule: Q01DX001 (ip), vehicle: acetone): 104 % of control
